Results reported in patent US8946225B2, “Derivatives of 2H pyridazin-3-ones, their preparation and their use as SCD-1 inhibitors” (Pierre Fabre Medicament, priority 2009, dated 2015).

Legend:
[1] = target: T1, SCD-1 (Homo sapiens, UniProt O00767); assay: Human enzymatic activity of SCD-1 from microsomes of HepG2 cells (conversion of [14C] stearic acid to oleic acid, HPLC); type: biochemical; conditions: microsomal fraction of HepG2 cells, 62 μM stearic acid, 20 minutes at 37° C., vs vehicle 0.1% DMSO; read-out: HSCD-1 (HEPG2) IC50
T1 construct: addition of 125 μg of microsomal fraction of HepG2 cells; host or cells: HepG2 human hepatocarcinoma cells (microsomal fraction)
T1 sequence (O00767 1-359): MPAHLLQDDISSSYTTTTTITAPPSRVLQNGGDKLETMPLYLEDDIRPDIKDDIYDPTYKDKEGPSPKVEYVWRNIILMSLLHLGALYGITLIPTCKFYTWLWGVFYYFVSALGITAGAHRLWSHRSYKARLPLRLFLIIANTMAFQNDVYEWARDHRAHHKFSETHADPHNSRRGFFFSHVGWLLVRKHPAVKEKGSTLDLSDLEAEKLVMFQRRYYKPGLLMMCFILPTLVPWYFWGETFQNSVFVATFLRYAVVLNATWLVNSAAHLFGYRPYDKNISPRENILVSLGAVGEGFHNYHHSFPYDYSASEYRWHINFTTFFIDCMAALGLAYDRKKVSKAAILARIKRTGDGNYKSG

| Compound | IC50 [1] | melting point |
| --- | --- | --- |
| Cc1ccccc1OC1CCN(C(=O)Nc2ccnn(C)c2=O)CC1 [Example 59, 4-(2-methyl-phenoxy)-piperidine-1-carboxylic acid (2-methyl-3-oxo-2,3-dihydro-pyridazin-4-yl)-amide] | ~1000 nM | 124 °C |
| Cn1nccc(NC(=O)N2CCC(Oc3cc(F)ccc3Cl)CC2)c1=O [Example 53, 4-(2-Chloro-5-fluoro-phenoxy)-piperidine-1-carboxylic acid (2-methyl-3-oxo-2,3-dihydro-pyridazin-4-yl)-amide] | 30 to 100 nM | 116 °C |
| Cn1nccc(NC(=O)N2CCC(Oc3cc(F)cc(C(F)(F)F)c3)CC2)c1=O [Example 67, 4-(3-fluoro-5-trifluoromethyl-phenoxy)-piperidine-1-carboxylic acid (2-methyl-3-oxo-2,3-dihydro-pyridazin-4-yl)-amide] | 300 nM | 115 °C |
| Cc1ccc(C(C)C)cc1OC1CCN(C(=O)CNc2ccnn(C)c2=O)CC1 [Example 16, 4-{2-[4-(5-Isopropyl-2-methyl-phenoxy)-piperidin-1-yl]-2-oxo-ethylamino}-2-methyl-2H-pyridazin-3-one] | 30 to 100 nM | 159 °C |
| Cn1nccc(NCC(=O)N2CCC(CNc3cc(C(F)(F)F)ccc3Cl)CC2)c1=O [Example 32, 4-(2-{4-[(2-Chloro-5-trifluoromethyl-phenylamino)-methyl]-piperidin-1-yl}-2-oxo-ethylamino)-2-methyl-2H-pyridazin-3-one] | 300 to 1000 nM | 64 °C |
| O=C(CNc1ccn[nH]c1=O)N1CCC(Oc2cc(C(F)(F)F)ccc2Cl)CC1 [Example 40, 4-{2-[4-(2-Chloro-5-trifluoromethyl-phenoxy)-piperidin-1-yl]-2-oxo-ethylamino}-2H-pyridazin-3-one] | 10 to 100 nM | 222 °C |

Next, values leading:

| IC50 [1] | melting point | Compound |
| --- | --- | --- |
| 10 nM | 158 °C | O=C(Nc1ccn[nH]c1=O)N1CCC(Oc2cc(C(F)(F)F)ccc2Cl)CC1 [Example 72, 4-(2-Chloro-5-trifluoromethyl-phenoxy)-piperidine-1-carboxylic acid (3-oxo-2,3-dihydro-pyridazin-4-yl)-amide] |
| 300 to 1000 nM | 124 °C | Cn1nccc(NC(=O)N2CCC(Oc3ccccc3Cl)CC2)c1=O [Example 64, 4-(2-chloro-phenoxy)-piperidine-1-carboxylic acid (2-methyl-3-oxo-2,3-dihydro-pyridazin-4-yl)-amide] |
